From publication PMC9234589 (Heliyon, 2022)
“And” between values parts separate entries of the source, which are not always exact repeats. Identical values can stand only once.

Experiments:
C. elegans = details: NIC 100 μM; cited from earlier work
human lymphocytes = details: cited from earlier work
[1] = system: Drosophila melanogaster standard cross (ST), marker-heterozygous flies (mwh +/+ flr3); experiment: Drosophila wing spot test; type: in vivo
[2] = system: Drosophila melanogaster high bioactivation cross (HB), marker-heterozygous flies (mwh +/+ flr3); experiment: Drosophila wing spot test; type: in vivo
[3] = system: A549 human adenocarcinoma cells; details: cited from earlier work
[4] = NIC 0.456 mM + RES 0.0004 mM vs NIC 0.456 mM
[5] = NIC 0.456 mM + RES 0.0004 mM vs RES 0.0004 mM
[6] = NIC 0.456 mM + RES 0.011 mM vs RES 0.011 mM
[7] = NIC 11.4 mM + RES 0.0004 mM vs RES 0.0004 mM
[8] = NIC […] + RES 0.0004 mM vs NIC […]
[9] = NIC […] + RES 0.0004 mM vs RES 0.0004 mM
[10] = ST cross, URE 20 mM positive control, vs water
[11] = HB cross, URE 20 mM positive control, vs water

Structure (SMILES): CN1CCC[C@H]1c1cccnc1 [NIC, nicotine]
- Genotoxicity, comet assay (in words) (C. elegans): genotoxic
- Concentrations at which genotoxic in in vitro assays (human lymphocytes): > 0.5 µM
- Mean mwh clone size class ([1]; NIC 0.050 mM + RES 0.011 mM): 1.34
- Number of surviving flies ([1]; ST cross, NIC 11.4 mM): decreased
- Genotoxicity (in words) ([1]; ST cross, NIC […] and 11.4 mM, increased small and total spots): genotoxic
- Lethality ([2]; HB cross, NIC 11.4 mM): lethal
- Clone formation observed ([2]; NIC 0.456 mM): 0.95 per 105 per cell Cells division
- Large single spots (>2 cells) per fly (number of spots) ([2]; NIC 0.456 mM): 0.07 (007)
- Mean mwh clone size class ([2]; NIC 0.456 mM): 1.64
- Small single spots (1-2 cells) per fly (number of spots) ([2]; NIC 0.456 mM): 0.38 (038)
- Total spots per fly (number of spots) ([2]; NIC 0.456 mM): 0.48(048)
- Twin spots per fly (number of spots) ([2]; NIC 0.456 mM): 0.03 (003)
- mwh clones ([2]; NIC 0.456 mM): 47
- Clone formation observed ([2]; NIC 0.456 mM + RES 0.0004 mM): 0.95 per 105 per cell Cells division and 0.90 per 105 per cell Cells division
- Large single spots (>2 cells) per fly (number of spots) ([2]; NIC 0.456 mM + RES 0.0004 mM): 0.11 (007)
- Mean mwh clone size class ([2]; NIC 0.456 mM + RES 0.0004 mM): 2.21
- Small single spots (1-2 cells) per fly (number of spots) ([2]; NIC 0.456 mM + RES 0.0004 mM): 0.36 (023)
- Total spots per fly (number of spots) ([2]; NIC 0.456 mM + RES 0.0004 mM): 0.47 (030)
- Twin spots per fly (number of spots) ([2]; NIC 0.456 mM + RES 0.0004 mM): 0.00 (000)
- mwh clones ([2]; NIC 0.456 mM + RES 0.0004 mM): 29
- Clone formation control connected [2, 4]: -0.05 per 105 per cell Cells division
- Large single spots statistical diagnosis [2, 4]: -
- Small single spots statistical diagnosis [2, 4]: -
- Total spots statistical diagnosis [2, 4]: -
- Twin spots statistical diagnosis [2, 4]: -
- Clone formation control connected [2, 5]: -0.25 per 105 per cell Cells division
- Large single spots statistical diagnosis [2, 5]: -
- Small single spots statistical diagnosis [2, 5]: -
- Total spots statistical diagnosis [2, 5]: -
- Twin spots statistical diagnosis [2, 5]: -
- Large single spots (>2 cells) per fly (number of spots) ([2]; NIC 0.456 mM + RES 0.011 mM): 0.10 (006)
- Small single spots (1-2 cells) per fly (number of spots) ([2]; NIC 0.456 mM + RES 0.011 mM): 0.37 (022)
- Clone formation control connected [2, 6]: 0.20 per 105 per cell Cells division
- Small single spots statistical diagnosis [2, 6]: -
- Clone formation observed ([2]; NIC 11.4 mM + RES 0.0004 mM): 0.80 per 105 per cell Cells division
- Large single spots (>2 cells) per fly (number of spots) ([2]; NIC 11.4 mM + RES 0.0004 mM): 0.00 (000)
- Mean mwh clone size class ([2]; NIC 11.4 mM + RES 0.0004 mM): 1.25
- Small single spots (1-2 cells) per fly (number of spots) ([2]; NIC 11.4 mM + RES 0.0004 mM): 0.40 (004)
- Total spots per fly (number of spots) ([2]; NIC 11.4 mM + RES 0.0004 mM): 0.40 (004)
- Twin spots per fly (number of spots) ([2]; NIC 11.4 mM + RES 0.0004 mM): 0.00 (000)
- mwh clones ([2]; NIC 11.4 mM + RES 0.0004 mM): 04
- Clone formation control connected [2, 7]: -0.40 per 105 per cell Cells division
- Large single spots statistical diagnosis [2, 7]: -
- Small single spots statistical diagnosis [2, 7]: -
- Total spots statistical diagnosis [2, 7]: -
- Twin spots statistical diagnosis [2, 7]: -
- Large single spots statistical diagnosis [2, 8]: -
- Twin spots statistical diagnosis [2, 8]: -
- Large single spots statistical diagnosis [2, 9]: -
- Small single spots statistical diagnosis [2, 9]: -
- Total spots statistical diagnosis [2, 9]: -
- Twin spots statistical diagnosis [2, 9]: -

Structure (SMILES): Oc1ccc(/C=C/c2cc(O)cc(O)c2)cc1 [RES, Resveratrol]
- Effect on cell survival (in words) ([3]; RES 0.02 mM): inhibited cell survival
- Effect on cell proliferation and viability (in words) ([3]; RES 0.001 and 0.005 mM): promoted cell proliferation and viability
- Clone formation observed ([1]; RES 0.0004 mM): 1.15 per 105 per cell Cells division
- Large single spots (>2 cells) per fly (number of spots) ([1]; RES 0.0004 mM): 0.07 (004)
- Mean mwh clone size class ([1]; RES 0.0004 mM): 1.64
- Small single spots (1-2 cells) per fly (number of spots) ([1]; RES 0.0004 mM): 0.53 (031)
- Total spots per fly (number of spots) ([1]; RES 0.0004 mM): 0.60 (035)
- Twin spots per fly (number of spots) ([1]; RES 0.0004 mM): 0.00 (0)
- mwh clones ([1]; RES 0.0004 mM): 33
- Clone formation observed ([1]; RES 0.011 mM): 1.15 per 105 per cell Cells division and 1.35 per 105 per cell Cells division
- Large single spots (>2 cells) per fly (number of spots) ([1]; RES 0.011 mM): 0.03 (002) and 0.05 (005)
- Mean mwh clone size class ([1]; RES 0.011 mM): 1.84 and 1.58
- Small single spots (1-2 cells) per fly (number of spots) ([1]; RES 0.011 mM): 0.47 (027) and 0.58 (057)
- Total spots per fly (number of spots) ([1]; RES 0.011 mM): 0.57 (033) and 0.67 (066)
- Twin spots per fly (number of spots) ([1]; RES 0.011 mM): 0.07 (004) and 0.04 (004)
- Clone formation observed ([2]; RES 0.0004 mM): 1.20 per 105 per cell Cells division
- Large single spots (>2 cells) per fly (number of spots) ([2]; RES 0.0004 mM): 0.06 (005)
- Mean mwh clone size class ([2]; RES 0.0004 mM): 1.84
- Small single spots (1-2 cells) per fly (number of spots) ([2]; RES 0.0004 mM): 0.52 (045)
- Total spots per fly (number of spots) ([2]; RES 0.0004 mM): 0.59 (051)
- Twin spots per fly (number of spots) ([2]; RES 0.0004 mM): 0.01 (001)
- mwh clones ([2]; RES 0.0004 mM): 51
- Mean mwh clone size class ([2]; RES 0.011 mM): 1.43 and 1.56
- Twin spots per fly (number of spots) ([2]; RES 0.011 mM): 0.02 (001)

Structure (SMILES): CCOC(N)=O [URE, ethyl carbamate]
- Clone formation per 105 cells per cell division, observed ([1]; ST cross, URE 20 mM): 2.80
- Mean mvh clone size class ([1]; ST cross, URE 20 mM): 1.45
- mwh clones ([1]; ST cross, URE 20 mM): 38
- Small single spots (1-2 cells), Spots per Fly (Number of Spots) [1, 10]: 1.21 (34) Spots per Fly
- Small single spots (1-2 cells), Statistical Diagnosis [1, 10]: +
- Total spots statistical diagnosis [1, 10]: +
- Total spots, Spots per Fly (Number of Spots) [1, 10]: 1.36 (38) Spots per Fly
- Twin spots statistical diagnosis [1, 10]: -
- Twin spots, Spots per Fly (Number of Spots) [1, 10]: 0.04 (1) Spots per Fly
- large single spots (>2 cells), Spots per Fly (Number of Spots) [1, 10]: 0.11 (03) Spots per Fly
- large single spots (>2 cells), Statistical Diagnosis [1, 10]: -
- Clone formation per 105 cells per cell division, control connected ([1]; ST cross, URE 20 mM, control water): 1.65
- Clone formation per 105 cells per cell division, observed ([2]; HB cross, URE 20 mM): 6.35
- Mean mvh clone size class ([2]; HB cross, URE 20 mM): 1.82
- mwh clones ([2]; HB cross, URE 20 mM): 71
- Small single spots (1-2 cells), Spots per Fly (Number of Spots) [2, 11]: 2.52 (58) Spots per Fly
- Small single spots (1-2 cells), Statistical Diagnosis [2, 11]: +
- Total spots statistical diagnosis [2, 11]: +
- Total spots, Spots per Fly (Number of Spots) [2, 11]: 3.09 (71) Spots per Fly
- Twin spots statistical diagnosis [2, 11]: +
- Twin spots, Spots per Fly (Number of Spots) [2, 11]: 0.17 (4) Spots per Fly
- large single spots (>2 cells), Spots per Fly (Number of Spots) [2, 11]: 0.39 (09) Spots per Fly
- large single spots (>2 cells), Statistical Diagnosis [2, 11]: +
- Clone formation per 105 cells per cell division, control connected ([2]; HB cross, URE 20 mM, control water): 4.85
